Twelve compounds from patent publication EP4596546A1, “SULFONAMIDE COMPOUND, AND HARMFUL-ARTHROPOD EXTERMINATION COMPOSITION CONTAINING SAME” (priority 2022, dated 2024) can be followed below.

The structures appear in SMILES notation. Some results are limits rather than exact numbers.

Type in all cases: in vivo
The subject of assay [1] is cotton worm (Spodoptera litura). Put plainly: Test Method 9: sprayed cabbage seedling, third-instar larvae of cotton worm (formulation per Formulation Example 5). The conditions noted are these: 144 h, spray 20 mL/seedling, after 6 days. As to the method: (§1) Next, Test Examples are used to show effects of the Present compounds on harmful arthropods. In the following Test Examples, the tests were carried out at 25°C.
(§2) Each test compound is made to a formulation according to a similar method to that described in the Formulation Example 5, and thereto is added water containing 0.03 v/v% of Shindain (registered trademark) to prepare a diluted solution containing a prescribed concentration of the test compound.
Cabbage (Brassicae oleracea) seedling (on the developmental stage of the third to fourth true leaf) is planted in a container, and the diluted solutions are sprayed to the seedling at a ratio of 20 mL/seedling. Thereafter, ten of third-instar larvae of cotton worm (Spodoptera litura) are released. After 6 days, the number of the surviving insects is counted, and the mortality of insects is calculated by the following equation. [formula]

For assay [2] the test system is unchanged. Put plainly: Test Method 3: sprayed cabbage, cut aerial part, second-instar larvae of cotton worm. The settings on record: 120 h, spray 20 mL/seedling, after 5 days. The procedure:
(§3) Next, Test Examples are used to show effects of the Present compounds on harmful arthropods. In the following Test Examples, the tests were carried out at 25°C. Each test compound is made to a formulation according to a similar method to that described in the Formulation Example 1, and thereto is added water containing 0.03 v/v% of Shindain (registered trademark) to prepare a diluted solution containing a prescribed concentration of the test compound. Cabbage (Brassicae oleracea) seedling (on the developmental stage of the second to third true leaf) is planted in a container, and the diluted solutions are sprayed to the seedling at a ratio of 20 mL/seedling. Thereafter, the aerial part of the seedling is cut out and then is installed into a container in which a filter paper is placed at the bottom of the container. Five of second-instar larvae of cotton worm (Spodoptera litura) are released into the container. After 5 days, the number of the surviving insects is counted, and the mortality of insects is calculated by the following equation. [formula]

For assay [3], the system named is common house mosquito (Culex pipiens pallens). Put plainly: Test Method 12: last instar larvae of common house mosquito released into diluted solution. The conditions noted are these: 24 h, after 1 day. The procedure:
as §1
Each test compound is formulated to a test formulation according to a similar method to that described in the Formulation Example 1, and water is added in preparing for a diluted solution containing a prescribed concentration of the test compound.
Into the diluted solution, 30 last instar larvae of common house mosquito (Culex pipiens pallens) are released, and after 1 day, the state of the house mosquito larvae is examined, and the mortality is calculated by the following equation. [formula]

Assay [4] has as its system diamondback moth (Plutella xylostella). Put plainly: Test Method 10: sprayed cabbage seedling, third-instar larvae of diamondback moth (formulation per Formulation Example 5). The settings on record: 120 h, spray 20 mL/seedling, after 5 days. The procedure:
as §1, §2
Cabbage (Brassicae oleracea) seedling (on the developmental stage of the third to fourth true leaf) is planted in a container, and the diluted solutions are sprayed to the seedling at a ratio of 20 mL/seedling. Thereafter, ten of third-instar larvae of diamondback moth (Plutella xylostella) are released. After 5 days, the number of the surviving insects is counted, and the mortality of insects is calculated by the following equation. [formula]

In assay [5] the test system is housefly (Musca domestica). Nature of the assay: Test Method 8: coated glass vial contact test, housefly female adults. The conditions noted are these: 24 h, 40 mg/m^2 on vial inner face, 1 day. As to the method:
as §1
An acetone solution which is adjusted to 800 ppm of each test compound is poured into a 20 mL glass vial, and the test compound is coated uniformly on inner face of the vial so as to 40 mg/m^2 of the test compound treated, and the vial is then dried.
5 housefly (Musca domestica) female adults are released into the treated vial, and the vial is then covered with lid. After the prescribed time, the state of the housefly is examined, and the mortality is calculated by the following equation. [formula]

The test system of assay [6] is diamondback moth (Plutella xylostella). Put plainly: Test Method 4: sprayed cabbage, cut aerial part, second-instar larvae of diamondback moth. The settings on record: 120 h, spray 20 mL/seedling, after 5 days. The procedure:
as §3, with “diamondback moth (Plutella xylostella)” for “cotton worm (Spodoptera litura)”

Assay [7] concerns Western corn rootworm (Diabrotica virgifera virgifera). Put plainly: whole plant or invertebrate. The settings on record: 120 h. The procedure:
as §1
Each 1 mg of the test compounds is dissolved in 50 µL of a mixed solution consisting of 5% of polyoxyethylene sorbitan mono-cocoate and 95% of acetone by volume ratio. Thereto is added water containing 0.03% by volume of Shindain (registered trademark) to prepare a diluted solution containing a prescribed concentration of the test compound.
A young seedling of corn (Zea mays) is immersed into the diluted solution for 30 seconds. Thereafter, two seedlings are installed in a plastic petri dish (90 mm […]), and 10 of second-instar larvae of Western corn rootworm (Diabrotica virgifera virgifera) are released into the dish. After 5 days, the number of the dead insects is counted, and the mortality of insects is calculated by the following equation. Mortality (%) = (Numberofdeadinsects/10) × 100 [formula]

In assay [8] the test system is Haemaphysalis longicornis. Put plainly: Test Method 7: coated glass vial contact test, Haemaphysalis longicornis nymphs. The conditions noted are these: 48 h, 100 mg/m^2 on vial inner face, 2 days.
Protocol: An acetone solution which is adjusted to 2000 ppm of each test compound is poured into a 20 mL glass vial, and the test compound is coated uniformly on inner face of the vial so as to 100 mg/m^2 of the test compound treated, and the vial is then dried.
5 Haemaphysalis longicornis nymphs are released into the treated vial, and the vial is then covered with lid. After the prescribed time, the state of the Haemaphysalis longicornis is examined, and the mortality is calculated by the following equation.
The subject of assay [9] is German cockroach (Blattella germanica). Put plainly: Test Method 6: coated glass vial contact test, German cockroach male adults. The settings on record: 72 h, 40 mg/m^2 on vial inner face, 3 days. The procedure: as §1
An acetone solution which is adjusted to 800 ppm of each test compound is poured into a 50 mL glass vial, and the test compound is coated uniformly on inner face of the vial so as to 40 mg/m^2 of the test compound treated, and the vial is then dried.
5 German cockroach (Blattella germanica) male adults are released into the treated vial, and the vial is then covered with lid. After the prescribed time, the state of the German cockroach is examined, and the mortality is calculated by the following equation. [formula]

For `CNS(=O)(=O)c1c(-c2ccc(OCC(F)(F)C(F)(F)F)n(C)c2=O)nc2ccc(C(F)(F)F)cn12` [compound 1], the mortality at 200 ppm in assay [1] and in assay [4] was at least 80% in each case. The mortality at 500 ppm in assay [2] and in [6] was at least 80% each time. Besides, the mortality (usually the share of the test organisms that died) at 3.5 ppm in [3] was over 90%. Also, the mortality at 50 ppm in assay [4] is at least 80%. This compound also showed a mortality at 40 mg/m2, 40 mg/m2 in assay [5] of at least 80%.

`CCNS(=O)(=O)c1c(-c2ccc(OCC(F)(F)C(F)(F)F)n(C)c2=O)nc2ccc(Br)cn12` [compound 2]: the mortality at 200 ppm in assay [1], in assay [4] and in assay [7] was at least 80% throughout. Moreover, the mortality at 500 ppm in [2] and in assay [6] was at least 80% each time. Moreover, the mortality at 50 ppm in assay [4] is at least 80%.

With `CN(C)S(=O)(=O)c1c(-c2ccc(OCC(F)(F)C(F)(F)F)n(C)c2=O)nc2ccc(Br)cn12` [compound 3], the mortality at 200 ppm in assay [1], in assay [4] and in [7] was at least 80% throughout. In addition, the mortality at 500 ppm in assay [2] and in [6] was at least 80% each time. The mortality at 50 ppm in [4] was at least 80%.

Regarding `CNS(=O)(=O)c1c(-c2ccc(OCC(F)(F)C(F)(F)F)n(C)c2=O)nc2ccc(I)cn12` [compound 4], the mortality at 200 ppm in [1], in assay [4] and in assay [7] was at least 80% throughout. Further, the mortality at 100 mg/m2, 100 mg/m2 in [8] was at least 80%. In addition, the mortality at 500 ppm in assay [2] and in assay [6] was at least 80% in each case. Besides, the mortality at 3.5 ppm in assay [3] was over 90%. This compound displayed a mortality at 50 ppm in assay [4] of at least 80%. Also, the mortality at 40 mg/m2, 40 mg/m2 in assay [5] was at least 80%.

Take `Cn1c(OCC(F)(F)C(F)(F)F)ncc(-c2nc3ccc(Br)cn3c2S(=O)(=O)NC2CC2)c1=O` [compound 5]: the mortality at 200 ppm in assay [1] and in [4] was at least 80% each time. Moreover, the mortality at 40 mg/m2, 40 mg/m2 in [9] and in assay [5] was at least 80% throughout. The mortality at 500 ppm in [2] and in assay [6] was at least 80% each time. The mortality at 3.5 ppm in [3] was over 90%. Moreover, in assay [4], the mortality at 50 ppm is at least 80%.

As to `Cn1c(OCC(F)(F)C(F)(F)F)ncc(-c2nc3ccc(Br)cn3c2S(N)(=O)=O)c1=O` [compound 6], the mortality at 200 ppm in assay [1], in assay [4] and in [7] was at least 80% in each case. Moreover, the mortality at 500 ppm in assay [2] and in assay [6] was at least 80% throughout. Further, the mortality at 50 ppm in assay [4] is at least 80%.

In the case of `CNS(=O)(=O)c1c(-c2cnc(OCC(F)(F)C(F)(F)F)n(C)c2=O)nc2ccc(I)cn12` [compound 7], the mortality at 200 ppm in assay [1], in assay [4] and in assay [7] was at least 80% each time. Besides, the mortality at 500 ppm in assay [2] and in assay [6] was at least 80% throughout. In addition, the mortality at 3.5 ppm in [3] is over 90%. The compound further yielded a mortality at 50 ppm in assay [4] of at least 80%. In [5], this compound gave a mortality at 40 mg/m2, 40 mg/m2 of at least 80%.

In the case of `CNS(=O)(=O)c1c(-c2cnc(OCC(F)(F)C(F)(F)F)n(C)c2=O)nc2cc(I)ccn12` [compound 8], the mortality at 200 ppm in assay [1], in assay [4] and in assay [7] was at least 80% in each case. The mortality at 40 mg/m2, 40 mg/m2 in assay [9] and in assay [5] was at least 80% in each case. The mortality at 500 ppm in assay [2] and in [6] was at least 80% throughout. Besides, the mortality at 3.5 ppm in assay [3] is over 90%. Moreover, the mortality at 50 ppm in assay [4] was at least 80%.

Take `CNS(=O)(=O)c1c(-c2cnc(OCC(F)(F)C(F)(F)F)n(C)c2=O)nc2ccc(C(F)(F)F)cn12` [compound 9]: the mortality at 200 ppm in [1], in assay [4] and in [7] was at least 80% throughout. Moreover, the mortality at 500 ppm in assay [2] and in assay [6] was at least 80% each time. Besides, the mortality at 3.5 ppm in [3] is over 90%. The compound also registered a mortality at 50 ppm in assay [4] of at least 80%.

Turning to `CNS(=O)(=O)c1c(-c2cnc(OCC(F)(F)C(F)(F)F)n(C)c2=O)nc2cc(C(F)(F)F)ccn12` [compound 10], the mortality at 200 ppm in assay [1], in [4] and in [7] was at least 80% each time. Moreover, the mortality at 40 mg/m2, 40 mg/m2 in [9] and in [5] was at least 80% in each case. Further, the mortality at 500 ppm in assay [2] and in [6] was at least 80% in each case. In addition, in assay [3], the mortality at 3.5 ppm is over 90%. Besides, the mortality at 50 ppm in assay [4] was at least 80%.

Regarding `CN(C)S(=O)(=O)c1c(-n2cnc3ccc(OC(F)(F)F)cc3c2=O)nc2ccc(I)cn12` [compound 11], the mortality at 200 ppm in [1], in assay [4] and in assay [7] was at least 80% in each case. Further, the mortality at 500 ppm in assay [2] and in assay [6] was at least 80% throughout. Moreover, in assay [4], the mortality at 50 ppm is at least 80%.

Regarding `CNS(=O)(=O)c1c(-n2cnc3ccc(OC(F)(F)F)cc3c2=O)nc2ccc(I)cn12` [compound 12], the mortality at 200 ppm in assay [1], in assay [4] and in [7] was at least 80% each time. Moreover, the mortality at 500 ppm in assay [2] and in assay [6] was at least 80% each time. Moreover, the mortality at 50 ppm in [4] was at least 80%.
